Several values for one entry are separate records, joined by “and”; a condition that tells them apart may be missing. Equal entries are not always repeated. Entries after “also recorded” stand apart in the source; their conditions may differ. Where two headings read alike, the source gives them in different places.
Experiment: Tissue analysis (internal tissue dose of parent PFAS, bioconcentration factor)
Assay type: in vivo, Danio rerio
Conditions: for Parent compound in fish tissue at 6 dpf: Study 1, daily exposure 0–5 dpf; for Bioaccumulation ranking: among chemicals assessed, from BCF values; for BCFdry: 6-d zebrafish assay; for concentration at 6 dpf: zebrafish (Danio rerio), whole larvae (pools of 10, homogenised), other: waterborne exposure in the well medium, 6 dpf larvae, dry weight 44 μg per larva, read-out: Measured tissue dose; for Dil Corrected Reported Conc. (fMole/larvae), measured tissue concentration: zebrafish larvae, replicate samples per experiment/plate
Protocol: Zebrafish were exposed to 25.1, 44.8, or 80.0μM ADONA, PFOA, PFESA1, or PFHxA, 14.0, 25.1, or 44.8μM PFHxS, or 1.0, 1.8, or 3.1μM PFOS, or 0.4% DMSO. The highest concentration evaluated was the no observed effect concentration (NOEC) determined in Study 1. In Study 2, zebrafish were exposed to 25.1, 44.8, or 80.0μM GenX Free Acid or 0.4% DMSO. According to the previously described microtiter plate inclusion criterion, 15/15 plates were included in the study. Larvae were anesthetized by rapid cooling in chilled 10% HBSS. Groups of 10 anesthetized larvae were pooled to comprise one biological replicate ( n=4 ) in 500μL of 10% HBSS, flash frozen in liquid nitrogen, and stored at −80°C . In the case of ADONA, n=5 .
Tissue samples were prepared by protein precipitation. Flash frozen samples, consisting of pools of ten 6-dpf zebrafish larvae, were homogenized using ∼100mg of 1.0-mm diameter zirconia/silica beads and a Fast-Prep-24™ homogenizer (MP Biomedicals) in 100μL 0.1M formic acid fortified with the surrogate (i.e., PFNA). Protein was precipitated from the homogenate with 400μL of acetonitrile containing internal standards and separated by centrifugation at 14,000 rpm for 15 min at 4°C. Fifty microliters of the extract was diluted with 200μL aqueous 0.4 mM ammonium formate in the LC vial for analysis. Standards and samples were analyzed with Vanquish UPLC and Orbitrap Fusion mass spectrometer (Thermo Electron) operated in negative ESI mode. ESI source conditions were optimized for the [M-H]^− ion of PFAS as follows: spray voltage −3.5 kV , sheath gas 25 au (arbitrary units), aux gas 6 au, sweep gas 0 au, ion transfer tube temperature 300°C, and vaporizer temperature […]. High-resolution accurate mass (HRAM) MS1 scans were collected with the following parameters: detector type orbitrap, orbitrap resolution 30,000 full width at half maximum (FWHM), normal mass range, Use quadrapole isolation=true , scan range 70–700m/z , radio frequency (RF) lens 60%, automatic gain control (AGC) target 4.00×10^5 , max injection time of 50 ms , 1 microscan, data type set to profile, negative polarity, and source fragmentation disabled. Data-dependent orbitrap MSMS (ddMS2-OT) scans were collected for the [M-H]^− ion [ M-H-CO2 for GenX]^– using a target mass list for the eight PFAS and PFNA surrogate for identity confirmation. The apex detection was set to an expected peak width of 2 s at FWHM and desired apex peak window of 30%. The dynamic exclusion parameters were set to exclude after a one-time, 60-s exclusion duration, low and high mass tolerances of 10 ppm , and exclude isotope was set to true. The intensity threshold for collecting an MSMS scan was set to 2.5E+04 . Fragmentation was done by high-energy collisional dissociation (HCD). The ddMS2-OT scans were collected with the following parameters: orbitrap isolation mode, isolation window of 1.6m/z , isolation offset off, stepped HCD collision energy of 30%±10% , scan range of auto mass-to-charge ratio normal, orbitrap resolution of 30,000 FWHM, first mass 75m/z , max injection time of […], AGC target 5.00×10^4 , inject ions from available parallelizable time set to true, max injection time of 54 ms, 1 microscan, and data type set to centroid. UPLC separation was achieved using ACQUITY UPLC BEH C18 Column, 130Å , 1.7μM , 2.1mm×50mm (Waters Corp P/N 186,002,350) at 50°C with gradient elution at a flow rate of 300μL/min using 0.4 mM ammonium formate in acetonitrile and water with a 10-μL injection. Data collection, integration, calibration, and quantitation were performed using Xcalibur software (version 4.1; Thermo Electron). Concentration for each PFAS analyte was determined by internal standard technique using isotopically labeled internal standards and matrix-matched calibration standards. Quantitative analysis was performed using high-resolution MS1-extracted ion chromatograms. […]

[1] = nominal 25.1 μM daily 0–5 dpf, 0.4% DMSO
[2] = nominal 44.8 μM daily 0–5 dpf, 0.4% DMSO
[3] = nominal 80.0 μM daily 0–5 dpf, 0.4% DMSO

Structure (SMILES) | Parent compound in fish tissue at 6 dpf (0.4% DMSO) | Bioaccumulation ranking | BCFdry (nominal 25.1 μM, 0.4% DMSO) | BCFdry (nominal 44.8 μM, 0.4% DMSO) | BCFdry (nominal 80.0 μM, 0.4% DMSO) | concentration at 6 dpf [1] | concentration at 6 dpf [2] | concentration at 6 dpf [3] | Dil Corrected Reported Conc. (fMole/larvae), measured tissue concentration (exposure Concentration 25.1 µM) | Dil Corrected Reported Conc. (fMole/larvae), measured tissue concentration (exposure Concentration 44.8 µM) | Dil Corrected Reported Conc. (fMole/larvae), measured tissue concentration (exposure Concentration 80 µM) | other results
O=C(O)C(F)(F)C(F)OC(F)(F)C(F)(F)C(F)(F)OC(F)(F)F (stereo not drawn) [ADONA, 4,8-Dioxa-3H-perfluorononanoate] | detectable levels | least bioaccumulative | 0.95 L/kg | 0.94 L/kg | 0.56 L/kg | 9490 ± 3100 ng/g | 16000 ± 6290 ng/g | 14900 ± 3110 ng/g | 687.994 fMole/larvae and 814.543 fMole/larvae and 1674.31 fMole/larvae and 986.423 fMole/larvae and 1056.18 fMole/larvae | 1721.39 fMole/larvae and 1579.99 fMole/larvae and 1307.54 fMole/larvae and 1119.74 fMole/larvae and 3082.15 fMole/larvae | 1324.81 fMole/larvae and 2040.26 fMole/larvae and 1665.47 fMole/larvae and 1967.75 fMole/larvae and 1175.25 fMole/larvae | 
O=C(O)C(F)(OC(F)(F)C(F)(F)C(F)(F)F)C(F)(F)F (stereo not drawn) [GenX Free Acid, Perfluoro-2-propoxypropanoic acid] |  |  |  |  |  |  |  |  |  |  |  | Parent compound in larval zebrafish tissue (GenX Free Acid diluted in DI water (Study 2)): detectable levels; also recorded: detectable in zebrafish tissue; Parent compound in zebrafish tissue at 6 dpf (GenX Free Acid diluted in DMSO (Study 1)): undetectable; BCFdry (nominal 25.1 μM in DI water (Study 2)): 0.45 L/kg; BCFdry (nominal 44.8 μM in DI water (Study 2)): 0.29 L/kg; BCFdry (nominal 80.0 μM in DI water (Study 2)): 0.49 L/kg; concentration at 6 dpf (nominal 25.1 μM in DI water (Study 2) daily 0–5 dpf): 2480 ± 660 ng/g; concentration at 6 dpf (nominal 44.8 μM in DI water (Study 2) daily 0–5 dpf): 2020 ± 270 ng/g; concentration at 6 dpf (nominal 80.0 μM in DI water (Study 2) daily 0–5 dpf): 5110 ± 1490 ng/g
O=S(=O)(O)C(F)(F)C(F)(F)OC(F)(C(F)(F)F)C(F)(F)OC(F)=C(F)F (stereo not drawn) [PFESA1, Perfluoro-3,6-dioxa-4-methyl-7-octene-1-sulfonic acid] | detectable levels | least bioaccumulative | 3.09 L/kg | 2.62 L/kg | 1.44 L/kg | 23700 ± 17500 ng/g | 37000 ± 17400 ng/g | 43200 ± 4840 ng/g | 4.79E+03 fMole/larvae and 1603 fMole/larvae and 2911 fMole/larvae and 78 fMole/larvae | 2778 fMole/larvae and 2495 fMole/larvae | 3514 fMole/larvae and 4409 fMole/larvae | 
O=C(O)C(F)(F)C(F)(F)C(F)(F)C(F)(F)C(F)(F)F [PFHxA, Perfluorohexanoic acid] |  | least bioaccumulative | 0.46 L/kg | 0.18 L/kg | 0.24 L/kg | 4970 ± 4400 ng/g | 3280 ± 560 ng/g | 8770 ± 4310 ng/g | 643.192 fMole/larvae and 1721.28 fMole/larvae and 198.739 fMole/larvae and 224.57 fMole/larvae | 344.178 fMole/larvae and 504.145 fMole/larvae and 437.515 fMole/larvae and 553.638 fMole/larvae | 1323.26 fMole/larvae and 776.14 fMole/larvae and 638.759 fMole/larvae and 2174.95 fMole/larvae | 
O=S(=O)(O)C(F)(F)C(F)(F)C(F)(F)C(F)(F)C(F)(F)C(F)(F)F [PFHxS, Perfluorohexanesulfonic acid] |  |  | 8.01 L/kg | 9.30 L/kg |  | 129000 ± 31500 ng/g | 261000 ± 57200 ng/g |  | 1.35E+04 fMole/larvae and 1.76E+04 fMole/larvae and 8.93E+03 fMole/larvae and 1.16E+04 fMole/larvae | 2.76E+04 fMole/larvae and 3.50E+04 fMole/larvae and 2.15E+04 fMole/larvae and 2.07E+04 fMole/larvae |  | BCFdry (nominal 14.0 μM, 0.4% DMSO): 11.82 L/kg; concentration at 6 dpf (nominal 14.0 μM daily 0–5 dpf, 0.4% DMSO): 107000 ± 50100 ng/g; Dil Corrected Reported Conc. (fMole/larvae), measured tissue concentration (exposure Concentration 14 µM): 8.83E+03 fMole/larvae and 1.94E+04 fMole/larvae and 6.95E+03 fMole/larvae and 7.88E+03 fMole/larvae
O=C(O)C(F)(F)C(F)(F)C(F)(F)C(F)(F)C(F)(F)C(F)(F)C(F)(F)F [PFOA, Perfluoro-n-octanoic acid] | detectable levels |  | 11.68 L/kg | 6.52 L/kg | 5.17 L/kg | 116000 ± 25200 ng/g | 124000 ± 29900 ng/g | 171000 ± 41100 ng/g | 16735.5 fMole/larvae and 10378.2 fMole/larvae and 12074.8 fMole/larvae and 10012 fMole/larvae | 10919.7 fMole/larvae and 9223.5 fMole/larvae and 16062.6 fMole/larvae and 16554.8 fMole/larvae | 21852.9 fMole/larvae and 22967.7 fMole/larvae and 14850.1 fMole/larvae and 12804.3 fMole/larvae | 
O=S(=O)(O)C(F)(F)C(F)(F)C(F)(F)C(F)(F)C(F)(F)C(F)(F)C(F)(F)C(F)(F)F [PFOS, Perfluorooctanesulfonic acid] |  | most bioaccumulative |  |  |  |  |  |  |  |  |  | BCFdry (nominal 1.0 μM, 0.4% DMSO): 1,374.89 L/kg; BCFdry (nominal 1.8 μM, 0.4% DMSO): 1,348.46 L/kg; BCFdry (nominal 3.1 μM, 0.4% DMSO): 684.03 L/kg; concentration at 6 dpf (nominal 1.0 μM daily 0–5 dpf, 0.4% DMSO): 220000 ± 109000 ng/g; concentration at 6 dpf (nominal 1.8 μM daily 0–5 dpf, 0.4% DMSO): 422000 ± 183000 ng/g; concentration at 6 dpf (nominal 3.1 μM daily 0–5 dpf, 0.4% DMSO): 678000 ± 53500 ng/g; Dil Corrected Reported Conc. (fMole/larvae), measured tissue concentration (exposure Concentration 0.986 µM): 29113.1 fMole/larvae and 7862.61 fMole/larvae and 11812.2 fMole/larvae and 28665.6 fMole/larvae; Dil Corrected Reported Conc. (fMole/larvae), measured tissue concentration (exposure Concentration 1.76 µM): 24142 fMole/larvae and 18963.9 fMole/larvae and 47666.3 fMole/larvae and 57759 fMole/larvae; Dil Corrected Reported Conc. (fMole/larvae), measured tissue concentration (exposure Concentration 3.144 µM): 57262.1 fMole/larvae and 67321.8 fMole/larvae and 54771.6 fMole/larvae and 59188.7 fMole/larvae

— publication PMC7228129, “Evaluation of Developmental Toxicity, Developmental Neurotoxicity, and Tissue Dose in Zebrafish Exposed to GenX and Other PFAS” (Environmental Health Perspectives, 2020)
